Reference: ChEMBL document CHEMBL1201862, “PubChem BioAssay data set” (2004)
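All cell lines were grown in 96-well plates and treated with compound for 48 hours. GI50 = concentration required for 50% inhibition of growth.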 Active and inactive are the calls of the source. Cut-off read from the data, not from the text of the source: active = GI50 up to about 1.1 µM and inactive = higher.

Key:
Experiment in all cases: DTP human tumour cell line panel, 48 h
786-0 = system: 786-0
BT-549 = system: BT-549
CAKI-1 = system: CAKI-1
HCT-15 = system: HCT-15
HL-60 = system: HL-60
Hs-578T = system: Hs-578T
K562 = system: K562
MDA-N = system: MDA-N
Malme-3M = system: Malme-3M
NCI-H23 = system: NCI-H23
OVCAR-3 = system: OVCAR-3
OVCAR-4 = system: OVCAR-4
OVCAR-8 = system: OVCAR-8
RXF 393 = system: RXF 393
SF-539 = system: SF-539
SK-MEL-28 = system: SK-MEL-28
SNB-19 = system: SNB-19
TK-10 = system: TK-10
U-251 = system: U-251
SK-OV-3 = system: SK-OV-3

Structure (SMILES) | GI50 (786-0) | GI50 (BT-549) | GI50 (CAKI-1) | GI50 (HCT-15) [µM] | GI50 (HL-60) | GI50 (Hs-578T) | GI50 (K562) | GI50 (MDA-N) | GI50 (Malme-3M) | GI50 (NCI-H23) | GI50 (OVCAR-3) | GI50 (OVCAR-4) | GI50 (OVCAR-8) | GI50 (RXF 393) | GI50 (SF-539) | GI50 (SK-MEL-28) | GI50 (SNB-19) | GI50 (TK-10) | GI50 (U-251) | GI50 (SK-OV-3)
Cc1cccc2c1C(=O)/C(=C/c1ccccc1C(=O)O)C2 | > 100 µM (inactive) | > 100 µM (inactive) | > 100 µM (inactive) | > 100 | > 100 µM (inactive) | > 100 µM (inactive) | > 100 µM (inactive) | > 100 µM (inactive) | > 100 µM (inactive) | > 100 µM (inactive) | > 100 µM (inactive) | > 100 µM (inactive) | > 100 µM (inactive) | > 100 µM (inactive) | > 100 µM (inactive) | > 100 µM (inactive) | > 100 µM (inactive) | > 100 µM (inactive) | > 100 µM (inactive) | –
CCOP(=O)(OCC)/C(C#N)=C/c1cnc(-c2ccccc2)[nH]1 | > 100 µM (inactive) | > 100 µM (inactive) | > 100 µM (inactive) | > 100 | > 100 µM (inactive) | > 100 µM (inactive) | > 100 µM (inactive) | > 100 µM (inactive) | > 100 µM (inactive) | 79.6 µM (inactive) | > 100 µM (inactive) | > 100 µM (inactive) | > 100 µM (inactive) | > 100 µM (inactive) | 0.0887 µM (active) | > 100 µM (inactive) | > 100 µM (inactive) | – | > 100 µM (inactive) | > 100 µM (inactive)
Cc1c(C)c2c(c(N)c1C#N)C(=O)N(Nc1ccccc1)C2=O | 51.9 µM (inactive) | > 100 µM (inactive) | > 100 µM (inactive) | > 100 | 26.7 µM (inactive) | 46.7 µM (inactive) | > 100 µM (inactive) | > 100 µM (inactive) | 51.5 µM (inactive) | – | 52.2 µM (inactive) | 33.4 µM (inactive) | 33 µM (inactive) | 20 µM (inactive) | 40.1 µM (inactive) | > 100 µM (inactive) | 39.1 µM (inactive) | 28.1 µM (inactive) | 43.5 µM (inactive) | –
NC(CCC(=O)O)C(=O)N1CCN(c2nc(N3CCCC3)c3nc(Cl)c(NCc4ccccc4)nc3n2)CC1 (centres undefined) | 12.1 µM (inactive) | 12.1 µM (inactive) | 17.8 µM (inactive) | 14 | 7.13 µM (inactive) | 20 µM (inactive) | 12.7 µM (inactive) | 10.1 µM (inactive) | 17.3 µM (inactive) | 15.4 µM (inactive) | 8.71 µM (inactive) | 10.5 µM (inactive) | 15.6 µM (inactive) | – | 13.2 µM (inactive) | 9.48 µM (inactive) | 17.5 µM (inactive) | 17.1 µM (inactive) | 13.8 µM (inactive) | 18 µM (inactive)
CCN(CC)c1ccc2cc(C(=O)Nc3ccccn3)c(=N)oc2c1 | 35.3 µM (inactive) | > 100 µM (inactive) | > 100 µM (inactive) | > 100 | > 100 µM (inactive) | 32.1 µM (inactive) | > 100 µM (inactive) | > 100 µM (inactive) | 60.3 µM (inactive) | 37.8 µM (inactive) | > 100 µM (inactive) | > 100 µM (inactive) | 36.3 µM (inactive) | 47.9 µM (inactive) | 43.5 µM (inactive) | > 100 µM (inactive) | 19.1 µM (inactive) | – | 37.9 µM (inactive) | 52 µM (inactive)
C(=N\c1ccc(-c2nc3ccccc3[nH]2)cc1)/c1ccco1 | > 100 µM (inactive) | > 100 µM (inactive) | > 100 µM (inactive) | 61 | 24.3 µM (inactive) | > 100 µM (inactive) | 37.6 µM (inactive) | 48.1 µM (inactive) | > 100 µM (inactive) | 82.6 µM (inactive) | 91.4 µM (inactive) | 70 µM (inactive) | 34.4 µM (inactive) | 73.8 µM (inactive) | 77.8 µM (inactive) | > 100 µM (inactive) | – | > 100 µM (inactive) | – | –
O=C(/C=C/c1ccccc1)/C=N/N1C(=S)N(c2ccccc2)C(=N\c2ccccc2)/C1=N/c1ccccc1 | > 100 µM (inactive) | > 100 µM (inactive) | > 100 µM (inactive) | > 100 | – | > 100 µM (inactive) | > 100 µM (inactive) | 82.4 µM (inactive) | > 100 µM (inactive) | > 100 µM (inactive) | > 100 µM (inactive) | – | > 100 µM (inactive) | 38.8 µM (inactive) | > 100 µM (inactive) | > 100 µM (inactive) | > 100 µM (inactive) | > 100 µM (inactive) | > 100 µM (inactive) | > 100 µM (inactive)
Cc1ccc2c(c1)[nH]c(=S)n2/C=C1\C(=O)Oc2ccccc2C1=O | 42.8 µM (inactive) | 45.7 µM (inactive) | 19.6 µM (inactive) | 44.9 | 55 µM (inactive) | 25.5 µM (inactive) | 52.2 µM (inactive) | 90.6 µM (inactive) | 34.6 µM (inactive) | 70.8 µM (inactive) | 24.4 µM (inactive) | 64.1 µM (inactive) | 65.8 µM (inactive) | 30.5 µM (inactive) | 69.7 µM (inactive) | 47.3 µM (inactive) | 86.5 µM (inactive) | > 100 µM (inactive) | 53.1 µM (inactive) | –
COc1cccc(C23CCN(C)C(CC(O)C2)C3)c1OC (centres undefined) | > 100 µM (inactive) | > 100 µM (inactive) | > 100 µM (inactive) | > 100 | > 100 µM (inactive) | > 100 µM (inactive) | > 100 µM (inactive) | > 100 µM (inactive) | > 100 µM (inactive) | > 100 µM (inactive) | > 100 µM (inactive) | > 100 µM (inactive) | > 100 µM (inactive) | – | > 100 µM (inactive) | > 100 µM (inactive) | > 100 µM (inactive) | > 100 µM (inactive) | > 100 µM (inactive) | > 100 µM (inactive)
COc1ccc(C2C(Cl)C(=O)N2NC(=O)c2ccc(N)cc2)cc1OC (centres undefined) | 2.43 µM (inactive) | 5.04 µM (inactive) | 2.92 µM (inactive) | 7.46 | 1.64 µM (inactive) | – | 3.12 µM (inactive) | 9.46 µM (inactive) | 12.5 µM (inactive) | 6.08 µM (inactive) | 5.85 µM (inactive) | 5.69 µM (inactive) | 4.08 µM (inactive) | 15.3 µM (inactive) | 7.8 µM (inactive) | 2.48 µM (inactive) | 13.9 µM (inactive) | 17 µM (inactive) | 2.72 µM (inactive) | 18.8 µM (inactive)
CC1(C)CC[C@]2(C(=O)O)[C@H](O)C[C@]3(C)C(=CC[C@@H]4[C@@]5(C)CC[C@H](OC6OC(C(=O)O)C(O)C(O)C6O)C(C)(C)[C@@H]5CC[C@]43C)[C@@H]2C1 (some centres undefined) | > 100 µM (inactive) | 18.5 µM (inactive) | > 100 µM (inactive) | 58.2 | 22.6 µM (inactive) | 28.2 µM (inactive) | 95.9 µM (inactive) | > 100 µM (inactive) | > 100 µM (inactive) | > 100 µM (inactive) | > 100 µM (inactive) | 22.3 µM (inactive) | 65.6 µM (inactive) | 26.1 µM (inactive) | – | 18.3 µM (inactive) | 52.7 µM (inactive) | – | 41 µM (inactive) | > 100 µM (inactive)
Cc1ccc(-c2cc(-c3ccccc3)nc(N)n2)c(O)c1 | > 58.1 µM (inactive) | > 100 µM (inactive) | > 74.6 µM (inactive) | > 22.9 | 2.22 µM (inactive) | – | 2.09 µM (inactive) | 4.78 µM (inactive) | > 100 µM (inactive) | > 100 µM (inactive) | > 59.2 µM (inactive) | > 100 µM (inactive) | 62.4 µM (inactive) | > 100 µM (inactive) | > 60.7 µM (inactive) | > 100 µM (inactive) | 32.4 µM (inactive) | > 60.1 µM (inactive) | 42.1 µM (inactive) | > 75.7 µM (inactive)
S=c1c2cn[nH]c2nc2scc(-c3ccc(Cl)cc3)n12 | 14.1 µM (inactive) | 10.5 µM (inactive) | 9.59 µM (inactive) | 10.7 | – | 8.73 µM (inactive) | 10.9 µM (inactive) | 4.36 µM (inactive) | 22.2 µM (inactive) | 13.8 µM (inactive) | 20.1 µM (inactive) | 43.1 µM (inactive) | 16 µM (inactive) | 4.04 µM (inactive) | 17.7 µM (inactive) | 18.1 µM (inactive) | 23.6 µM (inactive) | 10.6 µM (inactive) | 12.9 µM (inactive) | 18.1 µM (inactive)
COC(=O)C(CNC(=O)/C=C/c1ccc(OC)c(OC)c1)NC(=O)/C=C/c1ccc(OC)c(OC)c1 (centres undefined) | > 100 µM (inactive) | > 100 µM (inactive) | > 100 µM (inactive) | > 100 | – | > 100 µM (inactive) | > 100 µM (inactive) | > 100 µM (inactive) | 92.3 µM (inactive) | > 100 µM (inactive) | 66.5 µM (inactive) | > 100 µM (inactive) | > 100 µM (inactive) | > 100 µM (inactive) | > 100 µM (inactive) | 67.3 µM (inactive) | > 100 µM (inactive) | > 100 µM (inactive) | > 100 µM (inactive) | > 100 µM (inactive)
O=C(/C=C/c1ccc(O)c(O)c1)OCC(OC(=O)/C=C/c1ccc(O)c(O)c1)C(=O)O (centres undefined) | > 100 µM (inactive) | > 100 µM (inactive) | > 100 µM (inactive) | 47.6 | – | > 100 µM (inactive) | > 100 µM (inactive) | > 100 µM (inactive) | – | > 100 µM (inactive) | 55.2 µM (inactive) | 90.2 µM (inactive) | > 100 µM (inactive) | > 100 µM (inactive) | > 100 µM (inactive) | > 100 µM (inactive) | > 100 µM (inactive) | > 100 µM (inactive) | 63.7 µM (inactive) | > 100 µM (inactive)
